Measurements published in patent US20250230193A1, “CYCLIC COMPOUND HAVING SELECTIVE KRAS INHIBITORY EFFECT ON HRAS AND NRAS” (CHUGAI SEIYAKU KABUSHIKI KAISHA, priority 2022, published 2025).
*1 amine or outer side, *2 acyl side, *3 side chain or, on linkers, in order; H or OH if unused. Where a SMILES comes first, the peptide text is derived from it. Bridges are numbered along the chain shown (N, C = ends). [ ]: non-standard residue; d: D form. The star is where a group is joined. hPhe(3,5-F2-4-CF3) = N[C@@H](CCc1cc(F)c(C(F)(F)F)c(F)c1)C(=O)O; hPhe(3-Cl-4-CF3) = N[C@@H](CCc1ccc(C(F)(F)F)c(Cl)c1)C(=O)O; NPrPhe(4-CF3) = CCCN[C@@H](Cc1ccc(C(F)(F)F)cc1)C(=O)O; NEtAsp = CCN([C@@H](CC(=O)[*:3])C(=O)[*:2])[*:1]; NMeGly(cPent) = CN[C@H](C(=O)O)C1CCCC1; Pro(4,4-F2) = O=C(O)[C@@H]1CC(F)(F)CN1; NMeD = CN[C@@H](CC(=O)O)C(=O)O; NMeL = CN[C@@H](CC(C)C)C(=O)O; NMeNva = CCC[C@H](NC)C(=O)O; NMeS = CN[C@@H](CO)C(=O)O; Morpholide = C1CN(*)CCO1; NMeA = CN[C@@H](C)C(=O)O; Ac5c = NC1(C(=O)O)CCCC1; Aze = O=C(O)[C@@H]1CCN1; Ac4c = NC1(C(=O)O)CCC1; Sar = CNCC(=O)O

Experiments:
[1] = biological target: GDP-bound NRAS wild-type protein (Homo sapiens, UniProt P01111); assay: Binding to NRAS by surface plasmon resonance (SPR), Single Cycle Kinetics; settings: SPR; for NRAS/KRAS (ratio of KD value with respect to NRAS to KD value with respect to KRAS) / NRAS/KRAS (ratio of KD value for NRAS to KD value for KRAS): GDP-bound NRAS wild-type vs GDP-bound KRAS wild-type
Chain of GDP-bound NRAS wild-type protein (P01111 whole entry): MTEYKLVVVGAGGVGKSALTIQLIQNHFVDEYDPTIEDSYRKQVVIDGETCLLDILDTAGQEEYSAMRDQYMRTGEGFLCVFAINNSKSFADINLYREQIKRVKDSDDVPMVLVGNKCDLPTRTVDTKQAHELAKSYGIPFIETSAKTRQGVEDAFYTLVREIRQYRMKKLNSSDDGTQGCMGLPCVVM

[2] = biological target: GDP-bound HRAS wild-type protein (Homo sapiens, UniProt P01112); assay: Binding to HRAS by surface plasmon resonance (SPR), Single Cycle Kinetics; settings: SPR; for HRAS/KRAS (ratio of KD value with respect to HRAS to KD value with respect to KRAS) / HRAS/KRAS (ratio of KD value for HRAS to KD value for KRAS): GDP-bound HRAS wild-type vs GDP-bound KRAS wild-type
Chain of GDP-bound HRAS wild-type protein (P01112 whole entry): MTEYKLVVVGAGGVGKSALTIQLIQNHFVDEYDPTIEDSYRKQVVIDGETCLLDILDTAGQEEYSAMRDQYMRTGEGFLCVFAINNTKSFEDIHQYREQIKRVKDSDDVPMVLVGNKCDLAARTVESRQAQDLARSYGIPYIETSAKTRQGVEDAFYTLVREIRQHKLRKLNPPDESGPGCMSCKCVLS

Row | SMILES | NRAS/KRAS (ratio of KD value with respect to NRAS to KD value with respect to KRAS) [1] | HRAS/KRAS (ratio of KD value with respect to HRAS to KD value with respect to KRAS) [2] | NRAS/KRAS (ratio of KD value for NRAS to KD value for KRAS) [1] | HRAS/KRAS (ratio of KD value for HRAS to KD value for KRAS) [2] | further results
1 | CCC[C@H]1C(=O)N[C@@H]([C@@H](C)CC)C(=O)N(C2CC2)CC(=O)N(C)[C@H]2C/C=C\CCN(C2=O)[C@@H](CC2CCCCC2)C(=O)N(C)CC(=O)N[C@@H](CCc2ccc(C(F)(F)F)c(OC)c2)C(=O)N2C[C@H](OCC)C[C@H]2C(=O)N(C)C2(CCC2)C(=O)N(C)[C@@H](C(CC)CC)C(=O)N(C)[C@H](C(=O)N(C)C)CC(=O)N1C [PP2337] | A (a compound having 10 or more and less than 20 is denoted as A) | A (a compound having 10 or more and less than 20 is denoted as A) |  |  | 
2 | CCOC[C@H]1C(=O)N[C@@H]([C@@H](C)CC)C(=O)N(C)CC(=O)N(C)[C@H]2C/C=C\CCN(C2=O)[C@@H](Cc2ccc(C)cc2)C(=O)N(C)CC(=O)N[C@@H](CCc2ccc(C(F)(F)F)c(Cl)c2)C(=O)N2C[C@@H](C)C[C@H]2C(=O)NC2(CC(C)(C)C2)C(=O)N(C)[C@@H](C2CCCC2)C(=O)N(C)[C@H](C(=O)N(CC)CC)CC(=O)N1C [PP2465] | AA (a compound having 20 or more is denoted as AA) | A (a compound having 10 or more and less than 20 is denoted as A) |  |  | 
3 | CC[C@H](C)[C@@H]1NC(=O)[C@@H]2CCCCCc3ccc(cc3)C[C@@H](C(=O)N(C)CC(=O)N[C@@H](CCc3ccc(C(F)(F)F)c(OC)c3)C(=O)N3C[C@H](OC(C)C)C[C@H]3C(=O)NC3(CC(C)(C)C3)C(=O)N(C)[C@@H](C3CCCC3)C(=O)N(C)[C@H](C(=O)N(C)C)CC(=O)N2C)N2CC/C=C\C[C@@H](C2=O)N(C)C(=O)CN(C)C1=O [PP3072] |  |  |  |  | NRAS/KRAS (ratio of KD value with respect to GDP-bound NRAS wild-type protein to KD value with respect to KRAS) ([1]; GDP-bound wild-type proteins): A (a compound having 10 or more and less than 20 is denoted as A); HRAS/KRAS (ratio of KD value with respect to GDP-bound HRAS wild-type protein to KD value with respect to KRAS) ([2]; GDP-bound wild-type proteins): B (a compound having 3 or more and less than 10 is denoted as B)
4 | CCCN1C(=O)CN(C)C(=O)[C@@H]2CCN2C(=O)[C@H]([C@@H](C)CC)NC(=O)[C@H](CC(C)C)N(C)C(=O)C[C@@H](C(=O)N2CCOCC2)N(C)C(=O)[C@H](C2CCCC2)N(C)C(=O)C2(CCCC2)NC(=O)[C@@H]2CCCN2C(=O)[C@H](CCc2cc(F)c(C(F)(F)F)c(F)c2)NC(=O)CN(C)C(=O)[C@@H]1Cc1ccc(C(F)(F)F)cc1 [PP0770] ([NMeL]I[Aze][Sar][NPrPhe(4-CF3)][Sar][hPhe(3,5-F2-4-CF3)]P[Ac5c][NMeGly(cPent)][NMeD]-Morpholide; lactam N-11) |  |  |  |  | NRAS/KRAS (ratio of KD value with respect to GDP-bound NRAS wild-type protein to KD value with respect to KRAS) [1]: B (a compound having 3 or more and less than 10 is denoted as B); HRAS/KRAS (ratio of KD value with respect to GDP-bound HRAS wild-type protein to KD value with respect to KRAS) [2]: B (a compound having 3 or more and less than 10 is denoted as B)
5 | CCCN1C(=O)CN(C)C(=O)CN(C)C(=O)[C@H]([C@@H](C)CC)NC(=O)[C@H](CC(C)C)N(C)C(=O)C[C@@H](C(=O)N2CCOCC2)N(C)C(=O)[C@H](C2CCCC2)N(C)C(=O)C2(CCCC2)NC(=O)[C@H](COC)N(C)C(=O)[C@H](CCc2ccc(C(F)(F)F)c(Cl)c2)NC(=O)CN(C)C(=O)[C@@H]1Cc1ccc(C(F)(F)F)cc1 [PP1920] ([NMeL]I[Sar][Sar][NPrPhe(4-CF3)][Sar][hPhe(3-Cl-4-CF3)][NMeS](Me)[Ac5c][NMeGly(cPent)][NMeD]-Morpholide; lactam N-11) |  |  | B (a compound having 3 or more and less than 10 is denoted as B) | C (A compound having a KD ratio of 0.1 or more and less than 3 is denoted as C) | 
6 | CCCN(C)C(=O)[C@@H]1CC(=O)N(C)[C@@H](COCC)C(=O)N[C@@H]([C@@H](C)CC)C(=O)N(C)CC(=O)N(C)[C@H]2C/C=C\CCN(C2=O)[C@@H](Cc2ccc(C(F)(F)F)cc2)C(=O)N(C)CC(=O)N[C@@H](CCc2ccc(C(F)(F)F)c(OC)c2)C(=O)N2C[C@H](OCC)C[C@H]2C(=O)NC2(CC(C)(C)C2)C(=O)N(C)[C@@H](C2CCCC2)C(=O)N1C [PP2012] |  |  | AA (a compound having 20 or more is denoted as AA) | A (a compound having 10 or more and less than 20 is denoted as A) | 
7 | CC[C@H](C)[C@@H]1NC(=O)[C@H](CC)N(C)C(=O)C[C@@H](C(=O)N(CC)CC)N(C)C(=O)[C@H](C2CCCC2)N(C)C(=O)C2(CC(C)(C)C2)NC(=O)[C@@H]2C[C@H](C)CN2C(=O)[C@H](CCc2ccc(C(F)(F)F)c(OC)c2)NC(=O)CN(C)C(=O)[C@H](Cc2ccc(C)cc2)N2CC/C=C\C[C@@H](C2=O)N(C)C(=O)CN(C)C1=O [PP1839] |  |  | A (a compound having 10 or more and less than 20 is denoted as A) | B (a compound having 3 or more and less than 10 is denoted as B) | 
8 | CCCN1C(=O)[C@@H]2CCN2C(=O)[C@H](C)N(C)C(=O)[C@H]([C@@H](C)CC)NC(=O)[C@H](CC(C)C)N(C)C(=O)C[C@@H](C(=O)N2CCOCC2)N(C)C(=O)[C@H](C2CCCC2)N(C)C(=O)C2(CCCC2)NC(=O)[C@@H]2CC(F)(F)CN2C(=O)[C@H](CCc2ccc(C(F)(F)F)c(Cl)c2)NC(=O)CN(C)C(=O)[C@@H]1Cc1ccc(C(F)(F)F)cc1 [PP0196] ([NMeL]I[NMeA][Aze][NPrPhe(4-CF3)][Sar][hPhe(3-Cl-4-CF3)][Pro(4,4-F2)][Ac5c][NMeGly(cPent)][NMeD]-Morpholide; lactam N-11) |  |  |  |  | NRAS/KRAS (ratio of KD for GDP-bound NRAS wild-type to KD for KRAS) [1]: C (A compound having a KD ratio of 0.1 or more and less than 3 is denoted as C); HRAS/KRAS (ratio of KD for GDP-bound HRAS wild-type to KD for KRAS) [2]: C (A compound having a KD ratio of 0.1 or more and less than 3 is denoted as C)
9 | CCCN1C(=O)CN(C)C(=O)CN(C)C(=O)[C@H]([C@@H](C)CC)NC(=O)[C@H](CC(C)C)N(C)C(=O)C[C@@H](C(=O)N2CCOCC2)N(CC)C(=O)[C@H](C2CCCC2)N(C)C(=O)C2(CCC2)NC(=O)[C@@H]2CCCN2C(=O)[C@H](CCc2ccc(C(F)(F)F)c(Cl)c2)NC(=O)CN(C)C(=O)[C@@H]1Cc1ccc(C(F)(F)F)cc1 [PP1953] ([NMeL]I[Sar][Sar][NPrPhe(4-CF3)][Sar][hPhe(3-Cl-4-CF3)]P[Ac4c][NMeGly(cPent)][NEtAsp]-Morpholide; lactam N-11) |  |  | B (a compound having 3 or more and less than 10 is denoted as B) | B (a compound having 3 or more and less than 10 is denoted as B) | 
10 | CCC[C@H]1C(=O)N[C@@H]([C@@H](C)CC)C(=O)N(C)[C@@H](C)C(=O)N2CC[C@H]2C(=O)N(CCC)[C@@H](Cc2ccc(C(F)(F)F)cc2)C(=O)N(C)CC(=O)N[C@@H](CCc2ccc(C(F)(F)F)c(Cl)c2)C(=O)N2CC(F)(F)C[C@H]2C(=O)NC2(CCCC2)C(=O)N(C)[C@@H](C2CCCC2)C(=O)N(C)[C@H](C(=O)N2CCOCC2)CC(=O)N1C [PP0205] ([NMeNva]I[NMeA][Aze][NPrPhe(4-CF3)][Sar][hPhe(3-Cl-4-CF3)][Pro(4,4-F2)][Ac5c][NMeGly(cPent)][NMeD]-Morpholide; lactam N-11) |  |  |  |  | NRAS/KRAS (ratio of KD for GDP-bound NRAS wild-type to KD for KRAS) [1]: C (A compound having a KD ratio of 0.1 or more and less than 3 is denoted as C); HRAS/KRAS (ratio of KD for GDP-bound HRAS wild-type to KD for KRAS) [2]: C (A compound having a KD ratio of 0.1 or more and less than 3 is denoted as C)
11 | CCCOC[C@H]1C(=O)N[C@@H]([C@@H](C)CC)C(=O)N(C)CC(=O)N(C)[C@H]2C/C=C\CCN(C2=O)[C@@H](Cc2ccc(C(F)(F)F)cc2)C(=O)N(C)CC(=O)N[C@@H](CCc2ccc(C(F)(F)F)c(OC)c2)C(=O)N2C[C@H](OCC)C[C@H]2C(=O)NC2(CC(C)(C)C2)C(=O)N(C)[C@@H](C2CCCC2)C(=O)N(C)[C@H](C(=O)N(C)C)CC(=O)N1C [PP1657] |  |  | A (a compound having 10 or more and less than 20 is denoted as A) | B (a compound having 3 or more and less than 10 is denoted as B) | 
12 | CCC[C@H]1C(=O)N[C@@H](C(CC)CC)C(=O)N(C)CC(=O)N(C)[C@H]2C/C=C\CCN(C2=O)[C@@H](Cc2ccc(C)cc2)C(=O)N(C)CC(=O)N[C@@H](CCc2ccc(C(F)(F)F)c(Cl)c2)C(=O)N2C[C@H](OCC)C[C@H]2C(=O)NC2(CC(C)(C)C2)C(=O)N(C)[C@@H](CC(C)C)C(=O)N(C)[C@H](C(=O)N(C)C)CC(=O)N1C [PP2202] | A (a compound having 10 or more and less than 20 is denoted as A) | A (a compound having 10 or more and less than 20 is denoted as A) |  |  | 
13 | CCO[C@@H]1C[C@H]2C(=O)NC3(CC(C)(C)C3)C(=O)N(C)[C@@H](C(CC)CC)C(=O)N(C)[C@H](C(=O)N3CCCC3)CC(=O)N(C)[C@@H](CC)C(=O)N[C@@H]([C@@H](C)CC)C(=O)N(C)CC(=O)N(C)[C@H]3C/C=C\CCN(C3=O)[C@@H](Cc3ccc(C)cc3)C(=O)N(C)CC(=O)N[C@@H](CCc3ccc(C(F)(F)F)c(OC)c3)C(=O)N2C1 [PP2171] | A (a compound having 10 or more and less than 20 is denoted as A) | A (a compound having 10 or more and less than 20 is denoted as A) |  |  | 
14 | CCC(CC)[C@H]1C(=O)N(C)[C@H](C(=O)N(C)C)CC(=O)N(C)[C@@H](COC)C(=O)N[C@@H]([C@@H](C)CC)C(=O)N(C2CC2)CC(=O)N(C)[C@H]2C/C=C\CCN(C2=O)[C@@H](CC2CCCCC2)C(=O)N(C)CC(=O)N[C@@H](CCc2cc(F)c(C(F)(F)F)c(F)c2)C(=O)N2C[C@H](OC(C)C)C[C@H]2C(=O)NC2(CC(C)(C)C2)C(=O)N1C [PP2515] | A (a compound having 10 or more and less than 20 is denoted as A) | A (a compound having 10 or more and less than 20 is denoted as A) |  |  | 
